Where two headings read alike, the source gives them in different places.

In assay [1] the test system is Plasmodium falciparum strain NF54 (chloroquine-sensitive), erythrocytic stages. Description: Antiplasmodial 3H-hypoxanthine incorporation assay. It counts as cell-based. Conditions: for IC50: Plasmodium falciparum. The protocol: The assessment of antiplasmodial activity in vitro was evaluated against the erythrocytic stages of chloroquine-sensitive Plasmodium falciparum strain NF54 using a ^3H-hypoxanthine incorporation assay previously described, of which the […] NF54 strain originated from South Africa, and the standard drug chloroquine was obtained from Sigma-Aldrich (St. Louis, MO, USA). Compounds were dissolved in DMSO at 10 μg/mL and added to parasite cultures incubated in RPMI 1640 medium without hypoxanthine, supplemented with HEPES (5.94 g/L), NaHCO3 (2.1 g/L), neomycin (100 U/mL), Albumax, and washed human red cells A^+ at 2.5% hematocrit (0.3% parasitemia). Serial sample dilutions of […] dilution steps covering a range from 100 to 0.002 μg/mL were prepared. The 96-well plates were incubated in a humidified atmosphere at 37 °C; 4% CO2; 3% O2 and 93% N2. After 48 h, 50 μL of ^3H-hypoxanthine (0.5 μCi) was added to each well.

The target of assay [2] is T1, HIV-1 integrase (purified recombinant HIV-1 subtype C IN) (Human immunodeficiency virus type 1 group M subtype C, UniProt Q75002).
T1 construct: Recombinant HIV-1 subtype CIN was assembled on to the pre-processed donor DNA
Description: HIV-1 Integrase strand transfer inhibition assay. It is filed as biochemical. As to the method:
The HIV-1 Integrase strand transfer inhibition assay was adapted from previously described methods. […] Following incubation at room temperature for 40 min and a stringent wash step, 5 µg/mL purified recombinant HIV-1 subtype CIN in integrase buffer 1 ([…] to ethanol, 50 µg/mL BSA, pH 7.5) was added to individual wells. […] Recombinant HIV-1 subtype CIN was assembled on to the pre-processed donor DNA through incubation for 45 min at room temperature. Strand transfer reaction was initiated through the addition of 10 µM (final concentration) double-stranded FITC-labelled target DNA (5′-[…]/36-FAM/-3′) annealed to (5′-[…]-/36-FAM/-3′) in integrase buffer 2 (same as buffer 1, except 25 µM MnCl2 was replaced with 2.5 µM MgCl2). After an incubation period of 60 min at 37 °C, the plates were washed using PBS containing 0.05% Tween 20 and 0.01% BSA, followed by the addition of peroxidase-conjugated sheep anti-FITC antibody (Thermo Scientific, Waltham, MA, USA) diluted 1:1000 in the same PBS buffer. Finally, the plates were washed and peroxidase substrate (Sure Blue Reserve™, KPL, Gaithersburg, MD, USA) was added to allow for detection at 620 nm using a Synergy MX (BioTek®) plate reader. Absorbance values were converted to % enzyme activity relative to the readings obtained from the control wells (enzyme without inhibitor).

Where [3] appears, read: chloroquine-sensitive P. falciparum NF54, mean ± SD, '-' in Table 3 = no activity, read-out: NF54: IC50 (antiplasmodial activity).
Where [4] appears, read: mean ± SD; '-' in Table 2 = no inhibition detected; read-out: Assembly IC50 (anti-HIV-1 integrase activity).
The mark [5] stands for this setting: mean ± SD; '-' in Table 2 = no inhibition detected.
[6] abbreviates: chloroquine-sensitive P. falciparum NF54, mean ± SD, '-' in Table 3 = no activity.

T1 sequence (Q75002 1152-1439): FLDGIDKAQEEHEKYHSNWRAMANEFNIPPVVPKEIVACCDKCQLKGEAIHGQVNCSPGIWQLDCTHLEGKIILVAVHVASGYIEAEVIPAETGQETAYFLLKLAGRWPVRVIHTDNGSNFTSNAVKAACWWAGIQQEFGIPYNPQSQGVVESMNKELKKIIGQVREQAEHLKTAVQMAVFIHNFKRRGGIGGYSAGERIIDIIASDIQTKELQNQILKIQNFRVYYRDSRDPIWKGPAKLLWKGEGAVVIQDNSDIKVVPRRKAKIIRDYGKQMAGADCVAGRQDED

Turning to `COc1ccc(C(c2ccc(OC)cc2)[C@@H](C(=O)c2ccc(OC)cc2O)c2coc3cc(OC)ccc3c2=O)cc1` [Compound 2, (R)-3-(1-(2′-hydroxy-4′-methoxyphenyl)-3,3-bis(4″,4‴-dimethoxyphenyl)-1-oxopropan-2-yl)-4-methoxychromenone], the IC50 (usually the concentration that gives 50% inhibition) is 4.6 ± 6.09 µM in assay [1] (setting [3]) and > 20 µM in assay [2] (setting [4]).

In the case of `COc1ccc(C(c2ccc(O)cc2)[C@@H](C(=O)c2ccc(OC)cc2O)c2coc3cc(OC)ccc3c2=O)cc1` (some centres unmarked) [Compound 5, shweinfurthianone B], the IC50 in assay [1] (setting [3]) was 5.11 ± 13.7 µM; in assay [2] (setting [4]) it was > 20 µM. Moreover, in assay [2] (setting [5]), the “Assembly IC50 (anti-HIV-1 integrase activity)” value (“Assembly IC50” below) was “no inhibition detected”.

Turning to `COc1ccc(C(c2ccc(O)cc2)[C@@H](C(=O)c2ccc(O)cc2O)c2coc3cc(OC)ccc3c2=O)cc1` (stereo partly drawn) [Compound 3, (R)-3-(1-(2′,4′-dihydroxyphenyl)-3,3-bis(4″-hydroxy-4‴-methoxyphenyl)-1-oxopropan-2-yl)-4 methoxychromenone], the IC50 in assay [1] (setting [3]) was 7.86 ± 5.12 µM; in assay [2] (read-out: Assembly IC50 (anti-HIV-1 integrase activity); mean ± SD; '-' in Table 2 = no inhibition detected), > 20 µM. Besides, the “Assembly IC50” value in assay [2] (setting [5]) was “no inhibition detected”.

On to `COc1ccc(C(c2ccc(O)cc2)[C@@H](C(=O)c2ccc(O)cc2O)c2coc3cc(O)ccc3c2=O)cc1` (some centres unmarked) [Compound 4, schweinfurthianone A], for which the IC50 in assay [1] (setting [3]) is 8.2 ± 0.93 µM; in assay [2] (setting [4]) it was > 20 µM. In assay [2] (setting [5]), the “Assembly IC50” value is given as “no inhibition detected”.

Consider `C[C@H]1[C@H](OC(=O)CCC(=O)O)O[C@@H]2O[C@@]3(C)CC[C@H]4[C@H](C)CC[C@@H]1[C@@]24OO3` [Artesumate, reference compound], for which the IC50 in assay [1] (setting [3]) came to 0.002 µM.

As for `COc1cc(-c2coc3cc(O)cc(OC)c3c2=O)ccc1O` [Compound 7, 4′,7-dihydroxy-3′,5-dimethoxyisoflavone], the IC50 in assay [1] (setting [3]) is > 190 µM; in assay [2] (setting [4]), > 20 µM. For the same molecule, the “NF54: IC50 (antiplasmodial activity)” value in assay [1] (setting [6]) is reported as “no activity”.

For `O=C(/C=C/c1ccc(O)cc1)c1c(O)cc(O)c2c(C(=O)c3ccc(O)cc3O)c(-c3ccc(O)cc3)oc12` [Compound 6, calodenine B], the IC50 in assay [1] (setting [3]) was > 190 µM; in assay [2] (setting [4]), > 20 µM. The “NF54: IC50 (antiplasmodial activity)” value in assay [1] (setting [6]) is “no activity”. Further, the “Assembly IC50” value in assay [2] (setting [5]) is listed as “no inhibition detected”.

`CCN(CC)CCCC(C)Nc1ccnc2cc(Cl)ccc12` (centres unmarked) [Chloroquine, reference compound]: the IC50 in assay [1] (NF54, read-out: NF54: IC50 (antiplasmodial activity)) came to 0.006 ± 0.002 µM.

On to `O=C(c1ccc(O)cc1O)[C@@H](c1coc2cc(O)ccc2c1=O)C(c1ccc(O)cc1)c1ccc(O)cc1` [Compound 1], for which the IC50 in assay [1] (setting [3]) was > 190 µM; in assay [2] (read-out: Assembly IC50 (anti-HIV-1 integrase activity)), 0.047 ± 0.021 µM. For the same molecule, in assay [1] (setting [6]), the “NF54: IC50 (antiplasmodial activity)” value is reported as “no activity”.

Values taken from paper PMC9414862, “In Vitro and In Silico Potential Inhibitory Effects of New Biflavonoids from Ochna rhizomatosa on HIV-1 Integrase and Plasmodium falciparum” (Pharmaceutics, 2022).
